Results taken from patent publication US7547713B2, “O-pyridinequinone derivatives, the composition containing the derivatives, the process for preparation of the derivatives and the use of the derivatives” (priority 2002, dated 2009).
Entries after “also recorded” stand apart in the source; their conditions may differ. Where two headings read alike, the source gives them in different places.

Tests used:
[1] = system: mouse skin capillary permeability; assay: Increment of the mouse skin capillary permeability (xylene, Evans blue); assay type: in vivo; details: OD at 590 nm, blank control 0.442 ± 0.240, lower is better
Description: One hundred and seventy healthy male mice were divided randomly into 17 groups, 10 mice per group, namely, the blank control group, the high, medium, and low dosage groups of 5,6-di(m-acetylphenylamino)-2,3-pyridindione, respectively, the high, medium, and low dosage groups of 5,6-di(m-carboxylphenylamino)-2,3-pyridindione, respectively, the high, medium, and low dosage groups of 5,6-di(p-carboxylphenylamino)-2,3-pyridindione, respectively, the high, medium, and low dosage groups of 5,6-di(p-chlorophenylamino)-2,3-pyridindione, respectively, the high, medium, and low dosage groups of 5,6-di(p-tolylamino)-2,3-pyridindione, and the aspirin group as the positive control group. The mice were administered via gastro infusion according to the Table 5, and 1 hour later, 0.5%. Evans blue saline was injected into the mice via tail vain at 0.1 ml/10 g, then xylene with a dosage of 0.03 ml/mouse was applied to the mice in the shaved area at the middle belly. The mice were killed by cervical dislocation 20 min later, and their belly skin was peeled off, where the blue area was removed by using a biopsy punch, broken up by using surgery scissors, and put into covered glass tubes. Seven milliliters of acetone/water (7:3, v/v) solution was added into each tube, which was then stored in the dark and was gently shaken up 2-3 times daily. After 3 days, the solution in each tube was centrifuged at 2000 rpm for 10 min, and the supernatant was measured for optical density at 590 nm with the absorption of acetone/water (7:3, v/v) solution as the baseline. The lower the OD value, the better the anti-inflammatory effect.

[2] = system: animal model of anti-histamine; assay: Animal model of anti-histamine (Evans blue, dyed back skin); assay type: in vivo; details: rat; for Inhibition rate (%): histamine s.c., Evans blue; for Absorbency(A): blank control 0.099
Protocol: Forty healthy male rats were divided randomly into 4 groups, […], namely, the blank control group, the 5,6-di(m-acetylphenylamino)-2,3-pyridindione group, the 5,6-di(m-carboxylphenylamino)-2,3-pyridindione group, and the aspirin group as the positive control group. The compounds with dosage listed in Table 3 were administered orally to the rats, respectively, then 0.1 ml of […] was administered subcutaneously, and then 1 ml of 1% Evans blue was immediately injected intravenously under the tongue.

[3] = system: rat model of toe swelling; assay: Rat model of toe swelling (3% formaldehyde); assay type: in vivo; details: toe volume 2 hours after injection
Protocol: Forty healthy male rats were divided randomly into 4 groups, 10 rats per group, namely, the blank control group, the 5,6-di(m-acetylphenylamino)-2,3-pyridindione group, the 5,6-di(m-carboxylphenylamino)-2,3-pyridindione group, and the aspirin group as the drug control group. 0.1 ml of inflammation inducer (3% formaldehyde) was subcutaneously injected into the right toe of the hind leg of each rat. After 24 hours, the compounds with dosage listed in Table 1 were injected into the rats, respectively. The volume of the toes was measured 2 hours later after injection by using the Water Volume Method described in the Methodology of Pharmacology Experiments, 2nd edition, Shu-yun Xu, etc., People's Medical Publishing House, Beijing, 1991.

[4] = system: mouse model of auricle swelling; assay: Mouse model of auricle swelling (xylene); assay type: in vivo; details: xylene after 60 min, killed 4 hours later
Protocol: Forty healthy male mice were divided randomly into 4 groups, 10 mice per group, namely, the blank control group, the 5,6-di(m-acetylphenylamino)-2,3-pyridindione group, the 5,6-di(m-carboxylphenylamino)-2,3-pyridindione group, and the aspirin group as the drug control group. The compounds with dosage listed in Table 2 were administered orally to the […], respectively. After 60 min 0.05 ml xylene (analytical grade) was applied on the right ear of each mouse, respectively. The mice were killed 4 hours later, a disk of ear tissue was removed from the same location of both ears using a 5.5-mm biopsy punch, then each of the ear disks was weighed, and the rates of auricle swelling inhibition were calculated, as listed in Table 2.

COX-1 = COX-1 (Homo sapiens, UniProt P23219); assay: Inhibition of COX-1 (TMPD/arachidonic acid, absorption at 611 nm); assay type: biochemical
Sequence of COX-1 (P23219 24-599): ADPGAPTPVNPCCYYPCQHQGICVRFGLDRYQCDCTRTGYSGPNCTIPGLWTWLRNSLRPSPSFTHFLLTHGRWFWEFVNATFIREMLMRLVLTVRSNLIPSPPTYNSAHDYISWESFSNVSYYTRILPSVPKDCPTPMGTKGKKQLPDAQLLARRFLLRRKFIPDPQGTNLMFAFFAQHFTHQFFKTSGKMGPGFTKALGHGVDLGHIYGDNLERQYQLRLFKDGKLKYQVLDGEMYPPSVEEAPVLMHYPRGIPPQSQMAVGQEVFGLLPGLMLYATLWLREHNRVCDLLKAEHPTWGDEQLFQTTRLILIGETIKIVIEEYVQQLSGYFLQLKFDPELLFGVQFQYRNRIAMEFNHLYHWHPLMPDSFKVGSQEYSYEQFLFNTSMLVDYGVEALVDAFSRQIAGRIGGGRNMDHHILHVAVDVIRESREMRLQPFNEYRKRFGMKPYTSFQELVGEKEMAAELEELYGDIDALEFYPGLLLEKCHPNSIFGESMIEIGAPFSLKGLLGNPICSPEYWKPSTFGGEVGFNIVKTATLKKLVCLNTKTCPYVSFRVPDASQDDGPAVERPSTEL
Protocol: Methods: 4 μl of COX-1 was added to 960 μl 0.1 M Tris-HCl in a cell. The mixture was equilibrated for 30s, and then added with 1 μl inhibitor. After 2 min, 15 μl TMPD and 15 μl A.A. were immediately added to the mixture and mixed well. After 7 min, the absorption was measured at 611 nm.

mice = details: mouse, in vivo; for Death rate: both, 7 days
Protocol: Toxicological test of 5,6-di(m-acetylphenylamino)-2,3-pyridindione Single dose administration was used. 5,6-di(m-acetylphenylamino)-2,3-pyridindione was prepared to the required concentration with the presence of 0.5% DMSO. Sixty healthy male mice and 60 healthy female mice were divided randomly into 10 mice per group, 12 groups, among which 5 groups were administered by tail vein injection, and 5 groups were administered via gastro infusion, and the other two groups were used as negative controls. The activities and death of mice were observed and recorded for 7 days after the administration of the compound.

COX-2 = biological target: T1, COX-2 (Homo sapiens, UniProt P35354); assay: Inhibition of COX-2 in COLO 205 cell line (Prostaglandin E2 EIA); assay type: cell-based
T1 construct: host or cells: COLO 205
T1 sequence (P35354 18-604): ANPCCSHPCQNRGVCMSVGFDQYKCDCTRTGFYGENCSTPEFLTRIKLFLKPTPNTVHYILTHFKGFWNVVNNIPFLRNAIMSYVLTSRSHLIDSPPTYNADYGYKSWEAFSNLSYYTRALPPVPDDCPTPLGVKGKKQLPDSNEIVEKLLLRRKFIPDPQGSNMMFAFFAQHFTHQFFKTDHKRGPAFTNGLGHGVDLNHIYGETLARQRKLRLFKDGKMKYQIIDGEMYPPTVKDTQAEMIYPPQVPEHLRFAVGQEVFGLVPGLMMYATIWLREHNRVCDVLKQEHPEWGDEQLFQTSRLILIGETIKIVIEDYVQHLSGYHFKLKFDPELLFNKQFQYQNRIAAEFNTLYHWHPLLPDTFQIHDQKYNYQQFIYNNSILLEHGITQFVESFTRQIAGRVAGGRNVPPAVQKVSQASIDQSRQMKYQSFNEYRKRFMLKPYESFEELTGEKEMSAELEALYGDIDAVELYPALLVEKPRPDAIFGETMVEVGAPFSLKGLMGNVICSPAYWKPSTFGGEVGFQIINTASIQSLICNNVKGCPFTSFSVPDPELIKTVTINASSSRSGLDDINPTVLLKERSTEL
Description: Enzyme-Linked ImmunoSorbent Assay Kit (Prostaglandins E2 (PEG2) EIA Kit-Monoclonal, Cayman Chemical company (U.S.A)).

[5] = gastro infusion 1.0 mg/kg (low dosage)
[6] = gastro infusion 3.2 mg/kg (medium dosage)
[7] = gastro infusion 6.5 mg/kg (high dosage)
[8] = 5 mg/kg injected 24 h after formaldehyde

Structure (SMILES) | OD (A) [1, 5] | OD (A) [1, 6] | OD (A) [1, 7] | Inhibition rate (%) ([2]; 10 mg/kg orally) | Absorbency(A) ([2]; 10 mg/kg orally) | Inhibition rate (%) of toe swelling [3, 8] | Inhibition rate (%) of auricle swelling ([4]; 30 mg/kg orally) | further results
O=C1C=C(Nc2ccc(C(=O)O)cc2)C(Nc2ccc(C(=O)O)cc2)=NC1=O [5,6-di(p-carboxylphenylamino)-2,3-pyridindione] | 0.089 ± 0.054 A | 0.043 ± 0.023 A | 0.030 ± 0.012 A | – | – | – | – | –
O=C1C=C(Nc2ccc(Cl)cc2)C(Nc2ccc(Cl)cc2)=NC1=O [5,6-di(p-chlorophenylamino)-2,3-pyridindione] | 0.142 ± 0.098 A | 0.035 ± 0.026 A | 0.015 ± 0.015 A | – | – | – | – | –
O=C1C=C(Nc2cccc(C(=O)O)c2)C(Nc2cccc(C(=O)O)c2)=NC1=O [5,6-di(m-carboxylphenylamino)-2,3-pyridindione] | 0.038 ± 0.026 A | 0.030 ± 0.010 A | 0.036 ± 0.011 A | 16% | 0.084 A | 45.5% | 65.5% | –
CC(=O)c1cccc(NC2=CC(=O)C(=O)N=C2Nc2cccc(C(C)=O)c2)c1 [5,6-di(m-acetylphenylamino)-2,3-pyridindione] | 0.241 ± 0.121 A | 0.035 ± 0.049 A | 0.019 ± 0.018 A | 19% | 0.081 A | 62.5% | 83.2% | inhibition effect on COX-1 (COX-1; 1 μl of 10 mM inhibitor in dimethylsulfoxide, compared with control group without inhibitors, FIG. 1): no obvious inhibition effects; also recorded: almost no inhibition effect; Death rate (mice; 720 mg/kg): 0; Death rate (mice; 1030 mg/kg): 0; Death rate (mice; 1470 mg/kg): 0; Death rate (mice; 2100 mg/kg): 0; Death rate (mice; 3000 mg/kg): 0; death of the animals (mice): No death of the animals was observed; toxic reaction in aspect of activity, reactivity, back hair, dejecta (mice): normal; Toxic reaction (mice; 720 mg/kg): normal; Toxic reaction (mice; 1030 mg/kg): normal; Toxic reaction (mice; 1470 mg/kg): normal; Toxic reaction (mice; 2100 mg/kg): normal; Toxic reaction (mice; 3000 mg/kg): normal; inhibition of the activity of COX-2 (COX-2; COLO 205 cell line, PGE2 EIA, FIG. 2): higher inhibition effects on COX-2 than the former two; inhibition of the growth of the COLO205 cells ex vivo (COX-2; FIG. 2 legend): inhibits the growth of the COLO205 cells ex vivo
Cc1ccc(NC2=CC(=O)C(=O)N=C2Nc2ccc(C)cc2)cc1 [5,6-di(p-tolylamino)-2,3-pyridindione] | 0.049 ± 0.049 A | 0.011 ± 0.022 A | 0.051 ± 0.042 A | – | – | – | – | –
CC(=O)Oc1ccccc1C(=O)O [Aspirin, reference compound] | – | – | – | – | – | – | – | Inhibition rate (%) ([2]; 160 mg/kg orally): 13%; Absorbency(A) ([2]; 160 mg/kg orally): 0.086 A; Inhibition rate (%) of toe swelling ([3]; 50 mg/kg injected 24 h after formaldehyde): 10.1%; inhibition effect on COX-1 (COX-1): inhibited; Inhibition rate (%) of auricle swelling ([4]; 100 mg/kg orally): 30.1%
